Legend:
[1] = test system: tobacco budworm (Heliothis virescens); test: Activity against tobacco budworm (TBW); format: in vivo; conditions: 144 h, read-out: percent mortality, TBW
Method: In conducting evaluations of insecticidal activity, each test compound was formulated as a 400 ppm solution, and this solution was then diluted with water to give lesser concentrations. The 400 ppm solution was prepared by combining 19.2 mL of 0.05% solution of Tween 20 (polyoxyethylene (20) sorbitan monolaurate) in water with a solution of 8 mg of the compound in 0.8 mL of acetone/EtOH (9/1).
Activity against tobacco budworm (Heliothis virescens) was evaluated as follows. A general purpose lepidoptera artificial diet was diluted to half strength with a 5% non nutritive agar. 8 mL of this diet material was dispensed into each one ounce diet cup. One hour prior to treatment 18 to 20 eggs were dispensed onto the diet surface. The cups were then sprayed with formulated material through a flat-fan nozzle. The test was run using concentrations of 400 ppm and 50 ppm. Treated cups were air dried prior to sealing with plastic caps. The cups were held for 6 days at room temperature. Activity was then rated based on the total number of live and dead larvae, and on the size of live larvae.

[2] = test system: aster leafhopper (Macrosteles fascifrons); test: whole plant or invertebrate; conditions: 24 h, read-out: percent mortality, ALH
[3] = test system: beet armyworm (Spodoptera exiqua); test: whole plant or invertebrate; conditions: 144 h, read-out: percent mortality, BAW
[4] = test system: cotton aphid (Aphis gossypii); test: whole plant or invertebrate; conditions: 72 h, read-out: percent mortality, CA
[5] = test system: peanut root knot nematode (Meloidogyne arenaria); test: whole plant or invertebrate; conditions: in Arachis hypogaea, read-out: percent mortality, RKN
[6] = test system: Southern corn rootworm (Diabrotica undecimpuctata howardi Barber); test: whole plant or invertebrate; conditions: in Zea mays, soil, read-out: percent mortality, SCRW
[7] = test system: two spotted spider mite (Tetranychus urticae); test: whole plant or invertebrate; conditions: 72 h, read-out: percent mortality, TSSM
[8] = test system: German cockroach (Blattella germanicus); test: whole plant or invertebrate; conditions: 240 h, read-out: percent mortality, GECR

Compound	mortality at 400 ppm [1] [%]	mortality at 400 ppm [2] [%]	mortality at 400 ppm [3] [%]	mortality at 400 ppm [4] [%]	mortality at 400 ppm [5] [%]	mortality at 24 µg/g [6] [%]	mortality at 400 ppm [7] [%]	mortality at 400 ppm [8] [%]
Cc1nccc(NC(=O)Cc2ccc(Oc3ccc(Cl)cc3)cc2)n1 [Compound 1, 4-(4-chlorophenoxy)phenyl-N-(2-methyl-4-pyrimidinyl)acetamide]	100	0	100	100	100	100	100	100
O=C(Cc1ccc(OCC(F)(F)F)cc1)Nc1ccnc(-c2ccccc2)n1 [Compound 5, 4-(2,2,2-trifluroethoxy)phenyl-N-(2-phenyl-4-pyrimidinyl)acetamide]	0	0	30	0	0	0	0	0
CSc1nccc(NC(=O)Cc2ccc(Oc3ccc(F)cc3)cc2)n1 [Compound 6, 4-(4-fluorophenoxy)phenyl-N-(2-methylthio-4-pyrimidinyl)acetamide]	90	100	100	100	0	100	0	60
O=C(Cc1ccc(Oc2ccc(F)cc2)cc1)Nc1ccnc(-c2ccccc2)n1 [Compound 7, 4-(4-fluorophenoxy)phenyl-N-(2-phenyl-4-pyrimidinyl)acetamide]	60	0	60	100	0	0	0	60
Cc1nccc(NC(=O)Cc2cccc(Oc3ccccc3)c2)n1 [Compound 8, 3-phenoxyphenyl-N-(2-methyl-4-pyrimidinyl)acetamide]	0	100	0	100	0	0	0	40
CCc1nccc(NC(=O)Cc2ccc(OCC(F)(F)F)cc2)n1 [Compound 9, 4-(2,2,2-trifluroethoxy)phenyl-N-(2-ethyl-4-pyrimidinyl)acetamide]	100	100	100	100	0	0	0	0
CCc1nccc(NC(=O)Cc2ccc(Oc3ccc(F)cc3)cc2)n1 [Compound 10, 4-(4-fluorophenoxy)phenyl-N-(2-ethyl-4-pyrimidinyl)acetamide]	100	100	100	100	90	100	100	100
CCc1nccc(NC(=O)Cc2ccc(Oc3ccc(C(F)(F)F)cc3)cc2)n1 [Compound 11, 4-(4-trifluoromethylphenoxy)phenyl-N-(2-ethyl-4-pyrimidinyl)acetamide]	100	80	100	100	80	100	100	100
CCc1nccc(NC(=O)Cc2ccc(Oc3ccc(C#N)cc3)cc2)n1 [Compound 12, 4-(4-cyanophenoxy)phenyl-N-(2-ethyl-4-pyrimidinyl)acetamide]	100	100	100	100	100	100	100	100
CCc1nccc(NC(=O)Cc2ccc(Oc3ccc(C#N)cn3)cc2)n1 [Compound 13, 4-(5-cyano-2-pyridinyloxy)phenyl-N-(2-ethyl-4-pyrimidinyl)acetamide]	100	0	100	100	100	0	100	60

Reference: US5556859A, “N-(4-pyrimidinyl)amide pesticides” (DowElanco, priority 1994, dated 1996)
